The source of these data is ChEMBL document CHEMBL3758143, “5-Iodo-2-arylalkylthio-6-aryl pyrimidin-4(3H)-ones as non-nucleoside anti-HBV agents” (Medchemcomm, 2015).

Calls of active or inactive are those of the source. No cut-off for these calls is given here. Where only a bound is given, the exact number is not on record here.

Data set [1] relates to Hepatitis B virus. Put plainly: Antiviral activity against Hepatitis B virus in human HepAD38 cells assessed as inhibition of extracellular viral replication at 10 uM incubated for 2 days followed by 3 day incubation with fresh medium containing compound for 72 hrs by qRT-PCR analysis. It counts as functional. For orientation: Real-time PCR tracks product formation cycle by cycle.

Data set [2] has as its system Hepatitis B virus. Put plainly: Antiviral activity against Hepatitis B virus in human HepAD38 cells assessed as inhibition of extracellular viral replication incubated for 2 days followed by 3 day incubation with fresh medium containing compound for 72 hrs by qRT-PCR analysis. It counts as functional, organism-based.
Data set [3] is described as follows: Selectivity index, ratio of CC50 for human HepAD38 cells to EC50 for Hepatitis B virus. It counts as toxicity, cell-based. The conditions noted are these: read-out: Ratio CC50/EC50.
Data set [4] in a line: Cytotoxicity against human HepAD38 cells after 7 days by MTT assay. It counts as cell-based. For orientation: Formazan colour is commonly taken as a measure of viable cells.
Data set [5] concerns Hepatitis B virus. Put plainly: Antiviral activity against Hepatitis B virus in human HuH7 cells assessed as reduction in HBeAg secretion at 25 uM incubated for 2 days followed by 3 day incubation with fresh medium containing compound for 7 days by time-resolved fluoro-immunoassay. The class given is functional, organism-based. The note with it: Huh-7.
The test system of data set [6] is Hepatitis B virus. Briefly: Antiviral activity against Hepatitis B virus in human HuH7 cells assessed as reduction in HBsAg secretion at 25 uM incubated for 2 days followed by 3 day incubation with fresh medium containing compound for 7 days by time-resolved fluoro-immunoassay. It counts as functional, organism-based. The note with it: Huh-7.
For data set [7], the system named is Hepatitis B virus. Put plainly: Antiviral activity against Hepatitis B virus in human HuH7 cells assessed as inhibition of intracellular viral replication at 2.5 and 25 uM after 48 hrs by qRT-PCR analysis. The class given is functional, organism-based. The conditions noted are these: Huh-7.
In data set [8] the test system is Hepatitis B virus. Put plainly: Effect on transcription level in Hepatitis B virus assessed as pgRNA level in human HuH7 cells after 48 hrs by qRT-PCR analysis. It counts as functional, organism-based. The note with it: Huh-7.
In data set [9] the test system is Hepatitis B virus. Briefly: Antiviral activity against Hepatitis B virus in human HuH7 cells assessed as reduction in HBeAg secretion incubated for 2 days followed by 3 day incubation with fresh medium containing compound for 7 days by time-resolved fluoro-immunoassay. It counts as functional, organism-based. The conditions noted are these: Huh-7.

With `COc1ccc(Cc2nc(SCc3ccc(I)cc3)[nH]c(=O)c2I)cc1OC`, the inhibition at 10 µM with Hepatitis B virus [1] was determined as 17%.

As for `Cc1cc(C)cc(Cc2nc(SCc3ccc([N+](=O)[O-])cc3)[nH]c(=O)c2I)c1`, the inhibition at 10 µM in the data set on Hepatitis B virus [1] worked out at 25%.

As for `N#Cc1ccc(CSc2nc(Cc3cc(F)cc(F)c3)c(I)c(=O)[nH]2)cc1`, the inhibition at 10 µM in the data set with Hepatitis B virus [1] was 14%.

On to `Cc1cc(C)cc(Cc2nc(SCCOc3ccc([N+](=O)[O-])cc3)[nH]c(=O)c2I)c1`, for which, in the data set on Hepatitis B virus [1], the inhibition at 10 µM was 20%.

With `COc1ccc(Cc2nc(SCCOc3ccc(C)cc3)[nH]c(=O)c2I)cc1OC`, in the data set with Hepatitis B virus [1], the inhibition at 10 µM worked out at 49%.

With `O=c1[nH]c(SCc2ccc([N+](=O)[O-])cc2)nc(Cc2ccccc2)c1I`, the inhibition entry in the data set with Hepatitis B virus [1] was “inactive”.

Take `COc1ccc(Cc2nc(SC3CCCCCC3)[nH]c(=O)c2I)cc1OC`: the EC50 in the data set with Hepatitis B virus [2] was found to be 40.8 µM. Further, the selectivity ratio in data set [3] worked out at 2.4. In addition, in the data set with Hepatitis B virus [1], the inhibition at 10 µM came out at 31%. The same compound registered a CC50 at 168 h in [4] of 98 µM.

In the case of `COc1ccc(Cc2nc(SCc3ccc(C(F)(F)F)cc3)[nH]c(=O)c2I)cc1OC`, the inhibition at 10 µM in the data set on Hepatitis B virus [1] stood at 54%.

`N#Cc1ccc(CSc2nc(Cn3nnc4ccccc43)c(I)c(=O)[nH]2)cc1`: the inhibition at 10 µM with Hepatitis B virus [1] was 27%.

Take `Nc1ccn([C@H]2CS[C@@H](CO)O2)c(=O)n1`: the EC50 with Hepatitis B virus [2] came to 0.731 µM. Further, the selectivity ratio in [3] was above 137. For the same compound, in the data set on Hepatitis B virus [1], the inhibition at 10 µM stood at 88%. For the same compound, the CC50 at 168 h in [4] is above 100 µM.

Regarding `COc1cc(CSc2nc(Cn3nnc4ccccc43)c(I)c(=O)[nH]2)cc(OC)c1`, in the data set with Hepatitis B virus [2], the EC50 turned out to be 12.2 µM. Also, the selectivity ratio in data set [3] stood at 12. For the same compound, the inhibition at 10 µM with Hepatitis B virus [1] was determined as 59%. The compound further showed a CC50 at 168 h in data set [4] of 146 µM.

Regarding `COc1cccc(CSc2nc(Cc3ccc(OC)c(OC)c3)c(I)c(=O)[nH]2)c1`, the inhibition result in the data set on Hepatitis B virus [1] is “inactive”.

With `Cc1ccc(OCCSc2nc(Cn3nnc4ccccc43)c(I)c(=O)[nH]2)cc1`, the inhibition at 10 µM in the data set on Hepatitis B virus [1] worked out at 35%.

Regarding `O=c1[nH]c(SCCOc2ccc(Br)cc2)nc(Cn2nnc3ccccc32)c1I`, the inhibition at 10 µM with Hepatitis B virus [1] stood at 31%.

`O=c1[nH]c(SCCOc2ccc([N+](=O)[O-])cc2)nc(Cc2cc(F)cc(F)c2)c1I`: in the data set with Hepatitis B virus [1], the inhibition at 10 µM was 9%.

In the case of `N#Cc1ccc(CSc2nc(Cc3ccccc3)c(I)c(=O)[nH]2)cc1`, the inhibition at 10 µM in the data set with Hepatitis B virus [1] stood at 63%.

Turning to `Cc1cc(C)cc(Cc2nc(SCc3ccc(C#N)cc3)[nH]c(=O)c2I)c1`, in the data set with Hepatitis B virus [1], the inhibition at 10 µM was 33%.

On to `COc1ccc(Cc2nc(SCc3cccc(Cl)c3)[nH]c(=O)c2I)cc1OC`, for which the EC50 with Hepatitis B virus [2] is 4.28 µM. In addition, in data set [3], the selectivity ratio was 27.8. Besides, in the data set on Hepatitis B virus [1], the inhibition at 10 µM stood at 65%. This compound also yielded a CC50 at 168 h in [4] of 119 µM.

Turning to `O=c1[nH]c(SCc2ccc([N+](=O)[O-])cc2)nc(Cn2nnc3ccccc32)c1I`, in the data set on Hepatitis B virus [1], the inhibition at 10 µM turned out to be 49%.

Turning to `O=c1[nH]c(SCc2ccc(C(F)(F)F)cc2)nc(Cn2nnc3ccccc32)c1I`, in the data set on Hepatitis B virus [1], the inhibition result is “inactive”.

Regarding `COc1ccc(Cc2nc(SCc3ccc([N+](=O)[O-])cc3)[nH]c(=O)c2I)cc1OC`, the outcome in the data set with Hepatitis B virus [5], in the data set on Hepatitis B virus [6] and with Hepatitis B virus [7] was Active. Further, in the data set on Hepatitis B virus [2], the EC50 is 0.376 µM. In data set [3], the selectivity ratio was 330. For the same compound, the inhibition at 10 µM in the data set with Hepatitis B virus [1] amounted to 81%. For the same compound, the CC50 at 168 h in data set [4] worked out at 124 µM. Moreover, in the data set with Hepatitis B virus [8], the result was inactive. In addition, the Activity result with Hepatitis B virus [9] is “Dose-dependent effect”.

As to `COc1ccc(Cc2nc(SC3C=CCCC3)[nH]c(=O)c2I)cc1OC` (configuration not stated), the inhibition at 10 µM in the data set on Hepatitis B virus [1] turned out to be 52%.

For the compound `COc1ccc(Cc2nc(SCc3ccccc3[N+](=O)[O-])[nH]c(=O)c2I)cc1OC`, the inhibition at 10 µM with Hepatitis B virus [1] amounted to 62%.

With `O=c1[nH]c(SCCOc2ccc([N+](=O)[O-])cc2)nc(Cn2nnc3ccccc32)c1I`, the outcome with Hepatitis B virus [5], with Hepatitis B virus [6] and in the data set with Hepatitis B virus [7] was Active. Also, the EC50 with Hepatitis B virus [2] stood at 0.469 µM. For the same compound, the selectivity ratio in data set [3] is 111. Moreover, the inhibition at 10 µM in the data set on Hepatitis B virus [1] came out at 74%. Half-maximal cytotoxicity in data set [4] (CC50 at 168 h) was put at 52 µM. Besides, the outcome in the data set with Hepatitis B virus [8] was inactive. Moreover, the Activity result with Hepatitis B virus [9] was “Dose-dependent effect”.

As to `O=c1[nH]c(SCc2ccc([N+](=O)[O-])cc2)nc(Cc2cc(F)cc(F)c2)c1I`, in the data set with Hepatitis B virus [1], the inhibition at 10 µM worked out at 47%.

Take `COc1ccc(Cc2nc(SCCOc3ccc(Br)cc3)[nH]c(=O)c2I)cc1OC`: in the data set with Hepatitis B virus [1], the inhibition result was “inactive”.

As for `COc1ccc(Cc2nc(SCc3ccc(C#N)cc3)[nH]c(=O)c2I)cc1OC`, the EC50 with Hepatitis B virus [2] was determined as 4.84 µM. Besides, the selectivity ratio in data set [3] was found to be 19. In addition, the inhibition at 10 µM in the data set with Hepatitis B virus [1] was 67%. This compound had a CC50 at 168 h in [4] of 92 µM.

Take `O=c1[nH]c(SCc2ccc(I)cc2)nc(Cn2nnc3ccccc32)c1I`: the inhibition at 10 µM in the data set with Hepatitis B virus [1] stood at 34%.

Take `O=c1[nH]c(SCCOc2ccc([N+](=O)[O-])cc2)nc(Cc2ccccc2)c1I`: in the data set with Hepatitis B virus [1], the inhibition at 10 µM stood at 13%.

In the case of `COc1ccc(Cc2nc(SCCOc3ccc([N+](=O)[O-])cc3)[nH]c(=O)c2I)cc1OC`, the inhibition at 10 µM in the data set on Hepatitis B virus [1] turned out to be 6%.

Take `COc1cc(CSc2nc(Cc3ccc(OC)c(OC)c3)c(I)c(=O)[nH]2)cc(OC)c1`: the inhibition at 10 µM with Hepatitis B virus [1] stood at 41%.

In general, inhibition refers to the drop in the measured response relative to a control, in per cent. As usually defined, the EC50 is the concentration that produces a half-maximal response. As a reminder, the CC50 is the concentration at which the toxic effect on the cells reaches its halfway point. High values mean better tolerance by the cells, low ones harm at low concentration.
